Each block holds one compound with its values, some of them ahead of it.
What was measured:
[1] = system: MKN-45; assay: Growth inhibition of human MKN45 cells after 72 hrs by methylene blue dye assay; assay type: functional, cell-based; settings: MKN-45, 72 h
[2] = system: NCI-H460; assay: Growth inhibition of human H460 cells after 72 hrs by methylene blue dye assay; assay type: functional, cell-based; settings: NCI-H460, 72 h
[3] = system: KB; assay: Growth inhibition of human KB cells after 72 hrs by methylene blue dye assay; assay type: functional, cell-based
[4] = system: KB; assay: Growth inhibition of human Pgp170 overexpressing multidrug resistant-KB-VIN10 cells after 72 hrs by methylene blue dye assay; assay type: functional, cell-based
[5] = system: HT-29; assay: Growth inhibition of human HT-29 cells after 72 hrs by methylene blue dye assay; assay type: functional, cell-based; settings: HT-29, 72 h
[6] = Inhibition of tubulin polymerization after 30 mins
[7] = system: KB; assay: Growth inhibition of human Pgp170 overexpressing multidrug resistant-KB-TAX50 cells after 72 hrs by methylene blue dye assay; assay type: functional, cell-based
[8] = system: KB; assay: Growth inhibition of human KB-7D cells overexpressing multidrug resistant associated protein after 72 hrs by methylene blue dye assay; assay type: functional, cell-based
[9] = Displacement of [3H]colchicine from tubulin after 2 hrs at 5 uM
[10] = Growth inhibition of human fibroblast Detrot 551 cells after 72 hrs by methylene blue dye assay; assay type: cell-based; settings: Detrot 551, 72 h

SMILES: CCCOc1ccc2cc(OC)ccc2c1C(=O)c1cc(OC)c(OC)c(OC)c1
IC50 [1]: 1760 nM
IC50 [2]: 2720 nM
IC50 [3]: 2600 nM
IC50 [4]: 2430 nM
IC50 [5]: 2850 nM

SMILES: COc1ccc2c(O)c(C(=O)c3cc(OC)c(OC)c(OC)c3)ccc2c1
IC50 [1]: > 10000 nM
IC50 [2]: > 10000 nM
IC50 [3]: > 10000 nM
IC50 [4]: > 10000 nM
IC50 [5]: > 10000 nM

SMILES: COc1ccc2c(N)c(C(=O)c3cc(OC)c(OC)c(OC)c3)ccc2c1
IC50 [1]: 7430 nM
IC50 [6]: > 10000 nM
IC50 [2]: > 10000 nM
IC50 [3]: 8800 nM
IC50 [4]: 7910 nM
IC50 [5]: 9850 nM

SMILES: COc1cc([C@@H]2c3cc4c(cc3[C@@H](O[C@@H]3O[C@@H]5CO[C@@H](C)O[C@H]5[C@H](O)[C@H]3O)[C@H]3COC(=O)[C@H]23)OCO4)cc(OC)c1O [ETOPOSIDE]
IC50 [7]: 3500 nM
IC50 [8]: 54000 nM
IC50 [4]: 23000 nM

SMILES: COc1ccc2c(C(=O)c3cc(OC)c(OC)c(OC)c3)c(OC)ccc2c1
IC50 [1]: 53 nM
Activity [9]: 52%
IC50 [6]: 2700 nM
IC50 [2]: 84 nM
IC50 [3]: 65 nM
IC50 [4]: 70 nM
IC50 [5]: 144 nM

SMILES: COc1cc2c(c(OC)c1OC)-c1ccc(OC)c(=O)cc1[C@@H](NC(C)=O)CC2 [COLCHICINE]
IC50 [6]: 3200 nM
IC50 [2]: 18 nM
IC50 [3]: 11 nM
IC50 [5]: 10 nM

SMILES: COc1ccc2c(C(=O)c3cc(OC)c(OC)c(OC)c3)c[nH]c2c1
IC50 [1]: 3.2 nM
Activity [9]: 85%
IC50 [6]: 2800 nM
IC50 [2]: 7.1 nM
IC50 [3]: 4.6 nM
IC50 [4]: 6.2 nM
IC50 [5]: 5.9 nM

SMILES: CCCc1ccc2cc(OC)ccc2c1C(=O)c1cc(OC)c(OC)c(OC)c1
IC50 [1]: 840 nM
IC50 [2]: 987 nM
IC50 [3]: 1000 nM
IC50 [4]: 1100 nM
IC50 [5]: 1320 nM

SMILES: CCOc1ccc2cc(OC)ccc2c1C(=O)c1cc(OC)c(OC)c(OC)c1
IC50 [1]: 874 nM
IC50 [2]: 1210 nM
IC50 [3]: 1000 nM
IC50 [4]: 912 nM
IC50 [5]: 1130 nM

SMILES: COc1ccc(/C=C\c2cc(OC)c(OC)c(OC)c2)cc1O
Activity [9]: 93%

Further lines, with some results ahead:

IC50 [1]: 338 nM
IC50 [2]: 416 nM
IC50 [3]: 381 nM
IC50 [4]: 364 nM
IC50 [5]: 512 nM
SMILES: CNc1ccc2cc(OC)ccc2c1C(=O)c1cc(OC)c(OC)c(OC)c1

IC50 [7]: 273 nM
IC50 [8]: 7.9 nM
IC50 [3]: 3.3 nM
IC50 [4]: 16500 nM
SMILES: CC(=O)O[C@H]1C(=O)[C@@]2(C)[C@H]([C@H](OC(=O)c3ccccc3)[C@]3(O)C[C@H](OC(=O)[C@H](O)[C@@H](NC(=O)c4ccccc4)c4ccccc4)C(C)=C1C3(C)C)[C@]1(OC(C)=O)CO[C@@H]1C[C@@H]2O [PACLITAXEL]

IC50 [1]: 462 nM
IC50 [2]: 716 nM
IC50 [3]: 510 nM
IC50 [4]: 530 nM
IC50 [5]: 548 nM
SMILES: COc1ccc2cc(C(=O)c3cc(OC)c(OC)c(OC)c3)ccc2c1

IC50 [1]: 2.1 nM
Activity [9]: 85%
IC50 [6]: 2400 nM
IC50 [2]: 3.6 nM
IC50 [7]: 3.1 nM
IC50 [8]: 3.5 nM
IC50 [3]: 2.9 nM
IC50 [4]: 3.3 nM
IC50 [5]: 15.4 nM
SMILES: COc1ccc2c(C(=O)c3cc(OC)c(OC)c(OC)c3)c(N)ccc2c1
IC50 [10]: > 1000 nM

IC50 [1]: 320 nM
IC50 [2]: 764 nM
IC50 [3]: 600 nM
IC50 [4]: 512 nM
IC50 [5]: 667 nM
SMILES: CCc1ccc2cc(OC)ccc2c1C(=O)c1cc(OC)c(OC)c(OC)c1

IC50 [1]: 44.1 nM
Activity [9]: 68%
IC50 [6]: 4300 nM
IC50 [2]: 85.5 nM
IC50 [3]: 72.9 nM
IC50 [4]: 58 nM
IC50 [5]: 69.4 nM
SMILES: COc1ccc2c(C(=O)c3cc(OC)c(OC)c(OC)c3)cccc2c1

IC50 [1]: 254 nM
Activity [9]: 67%
IC50 [6]: 2900 nM
IC50 [2]: 321 nM
IC50 [3]: 276 nM
IC50 [4]: 263 nM
IC50 [5]: 412 nM
SMILES: COc1ccc2c(C(=O)c3cc(OC)c(OC)c(OC)c3)c(C)ccc2c1

IC50 [1]: > 10000 nM
IC50 [2]: > 10000 nM
IC50 [3]: > 10000 nM
IC50 [4]: > 10000 nM
IC50 [5]: > 10000 nM
SMILES: COc1ccc2c(C(=O)c3cc(OC)c(OC)c(OC)c3)c(N(C)C)ccc2c1

IC50 [1]: 21 nM
Activity [9]: 75%
IC50 [6]: 2600 nM
IC50 [2]: 12.6 nM
IC50 [7]: 15 nM
IC50 [8]: 16.9 nM
IC50 [3]: 8.2 nM
IC50 [4]: 11 nM
IC50 [5]: 26.3 nM
SMILES: COc1ccc2c(C(=O)c3cc(OC)c(OC)c(OC)c3)c(O)ccc2c1
IC50 [10]: > 1000 nM

IC50 [7]: 17.6 nM
IC50 [8]: 1.2 nM
IC50 [3]: 0.4 nM
IC50 [4]: 90.1 nM
SMILES: CC[C@]1(O)C[C@H]2CN(CCc3c([nH]c4ccccc34)[C@@](C(=O)OC)(c3cc4c(cc3OC)N(C=O)[C@H]3[C@@](O)(C(=O)OC)[C@H](OC(C)=O)[C@]5(CC)C=CCN6CC[C@]43[C@@H]65)C2)C1 [VINCRISTINE]

IC50 [1]: > 10000 nM
IC50 [2]: > 10000 nM
IC50 [3]: > 10000 nM
IC50 [4]: > 10000 nM
IC50 [5]: > 10000 nM
SMILES: COc1ccc2c(OC)c(C(=O)c3cc(OC)c(OC)c(OC)c3)ccc2c1
